Test results reported in BindingDB's records for patent US9771375 (Janssen Pharmaceutica NV, 2017).
pIC50: −log10 of the molar value.

Target: T1, Ketohexokinase (Human, UniProt P50053)
T1 sequence (P50053 whole entry): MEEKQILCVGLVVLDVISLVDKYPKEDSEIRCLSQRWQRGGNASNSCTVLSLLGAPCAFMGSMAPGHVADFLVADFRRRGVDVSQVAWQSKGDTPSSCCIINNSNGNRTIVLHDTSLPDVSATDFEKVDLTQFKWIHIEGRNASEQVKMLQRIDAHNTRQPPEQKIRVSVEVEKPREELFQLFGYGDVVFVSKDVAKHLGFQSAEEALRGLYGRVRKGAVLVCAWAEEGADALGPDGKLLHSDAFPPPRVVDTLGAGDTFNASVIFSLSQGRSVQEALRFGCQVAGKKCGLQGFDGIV
Assay: Enzyme Assay
Procedure: An enzymatic assay was developed to measure KHK-mediated conversion of D-fructose to Fructose-1-P (F-1-P) using High Throughput Mass Spectroscopy (HTMS) as a means of product detection. […] The assay was carried out in 384-well plate format.

COc1nn(-c2ccccc2)c2cc(N3CN(C4CCNCC4)C3)ccc12 [US9771375, Example 73]
pIC50: 6.41

CCc1nn(-c2ccccc2)c2nc(-c3ccc(N4CCNCC4)cc3)nc(O)c12 [US9771375, Example 97]
pIC50: 5.57
